Key:
Conditions in all cases: incubation time: 72 h
[1] = test system: DU-4475; assay: drug sensitivity score (DSS), CellTiter-Glo (DSS (AUC-based score)); higher = stronger drug effect (viability inhibition or cytotoxicity); extreme values may be limits of the assay
Method in brief: (§1)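 For 72 h, breast cancer cell lines seeded at 20 µl suspension per well in 384-well plates were incubated with compound at 5 concentrations in 10-fold steps spanning a 10,000-fold range that differed by compound. The first reading was CellTox Green fluorescence at 485/520 nm, and the second was CellTiter-Glo luminescence after 10 min at room temperature. Both were normalised per plate to 0.1 % DMSO and a positive kill control, and the drug sensitivity score was obtained from the area under the fitted dose-response curve.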

[2] = test system: HDQ-P1; assay: as above
Method in brief: as §1

[3] = test system: HCC1937; assay: as above
Method in brief: as §1

[4] = test system: BT-474; assay: as above
Method in brief: as §1

[5] = test system: MDA-MB-231; assay: as above
Method in brief: as §1

[6] = test system: MDA-MB-453; assay: as above
Method in brief: as §1

[7] = test system: HCC1143; assay: as above
Method in brief: as §1

[8] = test system: BT-549; assay: as above
Method in brief: as §1

[9] = test system: CAL-51; assay: as above
Method in brief: as §1

[10] = test system: HCC1599; assay: as above
Method in brief: as §1

[11] = test system: CAL-120; assay: as above
Method in brief: as §1

[12] = test system: CAL-148; assay: as above
Method in brief: as §1

[13] = test system: SK-BR-3; assay: as above
Method in brief: as §1

[14] = test system: Hs578T; assay: as above
Method in brief: as §1

[15] = test system: MCF-10A; assay: as above
Method in brief: as §1

[16] = test system: MDA-MB-468; assay: as above
Method in brief: as §1

[17] = test system: MFM-223; assay: as above
Method in brief: as §1

[18] = test system: MDA-MB-436; assay: as above
Method in brief: as §1

[19] = test system: DU-4475; assay: drug sensitivity score (DSS), CellTox Green (DSS (AUC-based score)); higher = stronger drug effect (viability inhibition or cytotoxicity); extreme values may be limits of the assay
Method in brief: as §1

[20] = test system: HCC1937; assay: as above
Method in brief: as §1

[21] = test system: MDA-MB-231; assay: as above
Method in brief: as §1

[22] = test system: MDA-MB-453; assay: as above
Method in brief: as §1

[23] = test system: HCC1143; assay: as above
Method in brief: as §1

[24] = test system: HCC1599; assay: as above
Method in brief: as §1

[25] = test system: CAL-85-1; assay: as above
Method in brief: as §1

[26] = test system: Hs578T; assay: as above
Method in brief: as §1

[27] = test system: MFM-223; assay: as above
Method in brief: as §1

SMILES | drug sensitivity score [1] | drug sensitivity score [2] | drug sensitivity score [3] | drug sensitivity score [4] | drug sensitivity score [5] | drug sensitivity score [6] | drug sensitivity score [7] | drug sensitivity score [8] | drug sensitivity score [9] | drug sensitivity score [10] | drug sensitivity score [11] | drug sensitivity score [12] | drug sensitivity score [13] | drug sensitivity score [14] | drug sensitivity score [15] | drug sensitivity score [16] | drug sensitivity score [17] | drug sensitivity score [18] | drug sensitivity score [19] | drug sensitivity score [20] | drug sensitivity score [21] | drug sensitivity score [22] | drug sensitivity score [23] | drug sensitivity score [24] | drug sensitivity score [25] | drug sensitivity score [26] | drug sensitivity score [27]
CN(c1ccccc1CNc1nc(Nc2ccc3c(c2)CC(=O)N3)ncc1C(F)(F)F)S(C)(=O)=O | 7.61 | 7.23 | 2.73 | 7.07 | 7.82 | 0 | 4.97 | 5.64 | 10.6 | 3.99 | 4.65 | 1.24 | 5.83 | 4.29 | 9.21 | 8.4 | 2.28 | 2.86 | 0 | 0 | 8.46 | 0 | 5.18 | 1.23 | 3.86 | 10.4 | 0
COc1ncc(-c2ccc3nccc(-c4ccnnc4)c3c2)cc1NS(=O)(=O)c1ccc(F)cc1F | 7.12 | 19.4 | 10.6 | 11.2 | 10.3 | 19.4 | 13.3 | 16.8 | 15.8 | 9.77 | 13 | 12.2 | 20.6 | 14 | 17.5 | 13.9 | 14.3 | 11.6 | 0 | 5.84 | 3.08 | 0 | 0 | 0 | 0 | 3.92 | 3.89
C[C@@]1(C(=O)Nc2ccc(F)nc2)CCCN1c1nc(Nc2cc(C3CC3)n[nH]2)c2cccn2n1 | 5.67 | 15.8 | 0 | 9.15 | 9.67 | 0 | 6.03 | 9.6 | 9.26 | 5.62 | 10.3 | 0 | 6.12 | 3.38 | 25 | 16.4 | 10.2 | 7.17 | 0 | 0 | 6.52 | 0 | 9.05 | 0 | 0 | 0 | 3.84
Nc1nccc(-c2c(-c3ccc(F)cc3)ncn2C2CCCCC2)n1 | 0 | 0 | 0 | 0.373 | 0 | 0.568 | 0 | 0 | 0.055 | 0 | 0 | 0 | 0 | 0 | 0.945 | 5.85 | 0 | 0 | 0 | 0 | 0 | 0 | 0 | 0 | 0 | 0 | 0
COc1c(C)cnc(Cn2cnc3c(Cl)nc(N)nc32)c1C [BIIB021] | 17.8 | 15.2 | 16.3 | 12.4 | 13.4 | 16.2 | 11.5 | 15.7 | 17.2 | 10.4 | 10.1 | 15.8 | 21.9 | 8.9 | 15.5 | 12.7 | 13.2 | 13.3 | 4.2 | 0 | 6.24 | 0 | 0 | 0 | 6.72 | 3.62 | 0
CC(C)C[C@H](NC(=O)[C@H](Cc1ccccc1)NC(=O)c1cnccn1)B(O)O [Bortezomib] | 17.5 | 22.6 | 12.9 | 24.4 | 22.4 | 16.8 | 19.3 | 28.8 | 18.3 | 9.67 | 19.9 | 14.4 | 26.4 | 22.8 | 9.83 | 30.9 | 27.1 | 26 | 2.21 | 21.4 | 22.4 | 2.35 | 6.67 | 0 | 27.8 | 17.3 | 12.5
CS(=O)(=O)OCCCCOS(C)(=O)=O [Busulfan] | 0 | 0 | 0 | 0.000307 | 0 | 0 | 0 | 0 | 0 | 0 | 0 | 0 | 0 | 0 | 0 | 0 | 0 | 0 | 0 | 0 | 0 | 0 | 0 | 0 | 0 | 0 | 0
C#Cc1cccc(Nc2ncnc3cc(OC)c(OCCCCCCC(=O)NO)cc23)c1 [CUDC-101] | 9.19 | 7.15 | 8.33 | 7.85 | 13.1 | 21.1 | 11.1 | 9 | 12.7 | 11.4 | 5.5 | 10.1 | 14.6 | 8.01 | 17.5 | 18.1 | 15 | 6.33 | 2.65 | 0 | 12.7 | 4.37 | 0 | 0 | 20.1 | 2.25 | 5.86
COc1cccc2c1C(=O)c1c(O)c3c(c(O)c1C2=O)C[C@@](O)(C(C)=O)C[C@@H]3O[C@H]1C[C@H](N)[C@H](O)[C@H](C)O1 [Daunorubicin] | 7.7 | 3.57 | 2.19 | 7.33 | 6.97 | 3.7 | 3.23 | 9.34 | 12 | 2.8 | 4.35 | 10 | 6.15 | 4.81 | 2.11 | 10.7 | 1.59 | 6.85 | 0 | 0 | 0 | 0 | 0 | 0 | 0 | 0 | 0
O=c1[nH]c(=O)n([C@H]2C[C@H](O)[C@@H](CO)O2)cc1F [Floxuridine] | 1.58 | 2.32 | 10.3 | 5.99 | 4.12 | 0 | 0 | 1.93 | 17.3 | 9.95 | 11.1 | 0 | 12 | 24.7 | 0 | 6.72 | 0 | 9.72 | 0 | 0 | 0 | 0 | 0 | 0 | 4.11 | 0 | 
Cn1cnc2c(F)c(Nc3ccc(Br)cc3F)c(C(=O)NOCCO)cc21 [MEK-162] | 12.5 | 5.43 | 0 | 2.42 | 0 | 0 | 0 | 0 | 0 | 0 | 0.188 | 0 | 0 | 0 | 13.3 | 0 | 0 | 0 | 1.92 |  |  | 0 | 0 | 0 | 0 | 0 | 3.03
Cn1c(=O)c(F)c(Nc2ccc(I)cc2F)c2c(=O)n(C[C@@H](O)CO)cnc21 [TAK-733] | 25.4 | 10.1 | 3 | 6.85 | 3.88 | 0 | 0 | 0.999 | 8.36 | 0 | 4.39 | 0 | 0 | 0 | 18.5 | 3.59 | 0.644 | 1.27 | 4.73 | 0 | 5.12 | 0 | 0 | 0 | 5.06 |  | 0
Cc1cc(C(C)Nc2ccccc2)c2nc(N3CCOCC3)cc(=O)n2c1 (stereo unspecified) [TGX-221] | 0 | 0.256 | 0 | 3.45 | 0 | 0 | 0 | 2.27 | 10.7 | 0 | 0.0447 | 0 | 0 | 0 | 0 | 4.69 | 0 | 0 | 0 | 0 | 0.585 | 0 | 0 | 0 | 0 |  | 0
